Measured values as given in ChEMBL document CHEMBL1909294, “Translating clinical findings into knowledge in drug safety evaluation--drug induced liver injury prediction system (DILIps)” (PLoS Comput Biol, 2011).
*1 amine or outer side, *2 acyl side, *3 side chain or, on linkers, in order; H or OH if unused. Where a SMILES comes first, the peptide text is derived from it. Bridges are numbered along the chain shown (N, C = ends). [ ]: non-standard residue; d: D form. The star is where a group is joined. pTerphenylCO(4''-OnC5H11) = CCCCCOc1ccc(-c2ccc(-c3ccc(C(=O)*)cc3)cc2)cc1; Orn(4R-OH,5R-OH) = O=C([C@H](C[C@@H](O)[C@@H](O)N[*:3])N[*:1])[*:2]; hTyr(3S-OH,4S-OH) = N[C@H](C(=O)O)[C@H](O)[C@@H](O)c1ccc(O)cc1; Ileψ(thiazoline)Cys = CC[C@H](C)[C@H](N)C1=N[C@H](C(=O)*)CS1; Pro(3S-OH,4S-Me) = C[C@H]1CN[C@H](C(=O)O)[C@H]1O; Hyp = O=C(O)[C@@H]1C[C@@H](O)CN1; dOrn = NCCC[C@@H](N)C(=O)O

Legend:
[1] = tested on: Hepatotoxicity;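 on HepSE Combined Scores: combined hepatic side effect score as listed in the training data of the Drug Induced Liver Injury Prediction System (DILIps)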;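 on HepSE cirrhosis: cirrhosis hepatic side effect score taken from the DILIps (drug-induced liver injury prediction) training set; call rule not given here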; on HepSE hepatic failure: call rule not given here;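 on HepSE hepatitis: Hepatitis-related hepatic side effect score taken from the training data of DILIps, a prediction system for drug-induced liver injury; call rule not given here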;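 on HepSE jaundice: Jaundice-related hepatic side-effect score drawn from the training data of the DILIps (drug-induced liver injury prediction system); call rule not given here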;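 on HepSE liver fatty: hepatic side effect score for fatty liver, taken from the DILIps training set for predicting drug-induced liver injury; call rule not given here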;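 on HepSE liver function tests abnormal: hepatic side effect score taken from the DILIps (drug-induced liver injury prediction system) training data, here covering abnormal liver function test findings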
[2] = tested on: Hepatotoxicity; remark: listed apart in the source;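 on HepSE cirrhosis: cirrhosis hepatic side effect score taken from the DILIps (drug-induced liver injury prediction) training set; call rule not given here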; on HepSE hepatic failure: call rule not given here;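 on HepSE hepatitis: Hepatitis-related hepatic side effect score taken from the training data of DILIps, a prediction system for drug-induced liver injury; call rule not given here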;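 on HepSE jaundice: Jaundice-related hepatic side-effect score drawn from the training data of the DILIps (drug-induced liver injury prediction system); call rule not given here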;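 on HepSE liver fatty: hepatic side effect score for fatty liver, taken from the DILIps training set for predicting drug-induced liver injury; call rule not given here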;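 on HepSE liver function tests abnormal: hepatic side effect score taken from the DILIps (drug-induced liver injury prediction system) training data, here covering abnormal liver function test findings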
[3] = tested on: Hepatotoxicity; remark: listed apart in the source;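 on HepSE cirrhosis: cirrhosis hepatic side effect score taken from the DILIps (drug-induced liver injury prediction) training set; call rule not given here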; on HepSE hepatic failure: call rule not given here;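 on HepSE hepatitis: Hepatitis-related hepatic side effect score taken from the training data of DILIps, a prediction system for drug-induced liver injury; call rule not given here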;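 on HepSE jaundice: Jaundice-related hepatic side-effect score drawn from the training data of the DILIps (drug-induced liver injury prediction system); call rule not given here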;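 on HepSE liver fatty: hepatic side effect score for fatty liver, taken from the DILIps training set for predicting drug-induced liver injury; call rule not given here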;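 on HepSE liver function tests abnormal: hepatic side effect score taken from the DILIps (drug-induced liver injury prediction system) training data, here covering abnormal liver function test findings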
[4] = tested on: Hepatotoxicity; remark: listed apart in the source;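 on HepSE cirrhosis: cirrhosis hepatic side effect score taken from the DILIps (drug-induced liver injury prediction) training set; call rule not given here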; on HepSE hepatic failure: call rule not given here;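 on HepSE hepatitis: Hepatitis-related hepatic side effect score taken from the training data of DILIps, a prediction system for drug-induced liver injury; call rule not given here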;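 on HepSE jaundice: Jaundice-related hepatic side-effect score drawn from the training data of the DILIps (drug-induced liver injury prediction system); call rule not given here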;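 on HepSE liver fatty: hepatic side effect score for fatty liver, taken from the DILIps training set for predicting drug-induced liver injury; call rule not given here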;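 on HepSE liver function tests abnormal: hepatic side effect score taken from the DILIps (drug-induced liver injury prediction system) training data, here covering abnormal liver function test findings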
[5] = tested on: Hepatotoxicity; remark: listed apart in the source; on HepSE hepatic failure: call rule not given here
[6] = tested on: Hepatotoxicity; remark: listed apart in the source; on HepSE hepatic failure: call rule not given here
[7] = tested on: Hepatotoxicity; remark: listed apart in the source
[8] = tested on: Hepatotoxicity; remark: listed apart in the source
[9] = tested on: Hepatotoxicity; remark: listed apart in the source
[10] = tested on: Hepatotoxicity; remark: listed apart in the source
[11] = tested on: Hepatotoxicity; remark: listed apart in the source
[12] = tested on: Hepatotoxicity; remark: listed apart in the source
[13] = tested on: Hepatotoxicity; remark: listed apart in the source
[14] = tested on: Hepatotoxicity; remark: listed apart in the source

## C[C@@H](O)[C@H]1C(=O)N2C(C(=O)O)=C(S[C@@H]3CN[C@H](C(=O)N(C)C)C3)[C@H](C)[C@H]12 [MEROPENEM]
[1]
  HepSE_liver fatty: 0
[2]
  HepSE_cirrhosis: 0
[3]
  HepSE_hepatitis: 1
[4]
  HepSE_hepatic failure: 1
[5]
  HepSE_cholelithiasis: 0
[6]
  HepSE_bilirubinemia: 0
[7]
  HepSE_jaundice: 1
[8]
  HepSE_liver function tests abnormal: 0
[9]
  HepSE_Combined Scores: 3
[10]
  HepSE_hepatomegaly: 0
[11]
  HepSE_elevated liver function tests: 0
[12]
  HepSE_liver disease: 0
[13]
  HepSE_hepatic necrosis: 0
[14]
  HepSE_cholecystitis: 0

## CNC(=O)c1c(I)c(NC(C)=O)c(I)c(C(=O)O)c1I [IOTHALAMIC ACID]
[1]
  HepSE_liver fatty: 0
[2]
  HepSE_cirrhosis: 0
[3]
  HepSE_hepatitis: 0
[4]
  HepSE_hepatic failure: 0
[5]
  HepSE_cholelithiasis: 0
[6]
  HepSE_bilirubinemia: 0
[7]
  HepSE_jaundice: 0
[8]
  HepSE_liver function tests abnormal: 0
[9]
  HepSE_Combined Scores: 0
[10]
  HepSE_hepatomegaly: 0
[11]
  HepSE_elevated liver function tests: 0
[12]
  HepSE_liver disease: 0
[13]
  HepSE_hepatic necrosis: 0
[14]
  HepSE_cholecystitis: 0

## CN1CCC[C@@H]1Cc1c[nH]c2ccc(CCS(=O)(=O)c3ccccc3)cc12
[1]
  HepSE_liver fatty: 0
[2]
  HepSE_cirrhosis: 0
[3]
  HepSE_hepatitis: 0
[4]
  HepSE_hepatic failure: 0
[5]
  HepSE_cholelithiasis: 0
[6]
  HepSE_bilirubinemia: 1
[7]
  HepSE_jaundice: 0
[8]
  HepSE_liver function tests abnormal: 1
[9]
  HepSE_Combined Scores: 2
[10]
  HepSE_hepatomegaly: 0
[11]
  HepSE_elevated liver function tests: 0
[12]
  HepSE_liver disease: 0
[13]
  HepSE_hepatic necrosis: 0
[14]
  HepSE_cholecystitis: 0

## CC(C)C(=O)OCC(=O)[C@@]12O[C@H](C3CCCCC3)O[C@@H]1C[C@H]1[C@@H]3CCC4=CC(=O)C=C[C@]4(C)[C@H]3[C@@H](O)C[C@@]12C [CICLESONIDE]
[1]
  HepSE_liver fatty: 0
[2]
  HepSE_cirrhosis: 0
[3]
  HepSE_hepatitis: 0
[4]
  HepSE_hepatic failure: 0
[5]
  HepSE_cholelithiasis: 0
[6]
  HepSE_bilirubinemia: 0
[7]
  HepSE_jaundice: 0
[8]
  HepSE_liver function tests abnormal: 0
[9]
  HepSE_Combined Scores: 0
[10]
  HepSE_hepatomegaly: 0
[11]
  HepSE_elevated liver function tests: 0
[12]
  HepSE_liver disease: 0
[13]
  HepSE_hepatic necrosis: 0
[14]
  HepSE_cholecystitis: 0

## C[C@H](Cn1cnc2c(N)ncnc21)OCP(=O)(O)O [TENOFOVIR ANHYDROUS]
[1]
  HepSE_liver fatty: 1
[2]
  HepSE_cirrhosis: 0
[3]
  HepSE_hepatitis: 1
[4]
  HepSE_hepatic failure: 0
[5]
  HepSE_cholelithiasis: 0
[6]
  HepSE_bilirubinemia: 0
[7]
  HepSE_jaundice: 0
[8]
  HepSE_liver function tests abnormal: 0
[9]
  HepSE_Combined Scores: 2
[10]
  HepSE_hepatomegaly: 0
[11]
  HepSE_elevated liver function tests: 0
[12]
  HepSE_liver disease: 0
[13]
  HepSE_hepatic necrosis: 0
[14]
  HepSE_cholecystitis: 0

## C[C@]12CC[C@H]3[C@@H](CCC4=CC(=O)CC[C@@]43C)[C@@H]1CC[C@@H]2O [TESTOSTERONE]
[1]
  HepSE_liver fatty: 0
[2]
  HepSE_cirrhosis: 0
[3]
  HepSE_hepatitis: 0
[4]
  HepSE_hepatic failure: 0
[5]
  HepSE_cholelithiasis: 0
[6]
  HepSE_bilirubinemia: 0
[7]
  HepSE_jaundice: 1
[8]
  HepSE_liver function tests abnormal: 1
[9]
  HepSE_Combined Scores: 2
[10]
  HepSE_hepatomegaly: 0
[11]
  HepSE_elevated liver function tests: 0
[12]
  HepSE_liver disease: 0
[13]
  HepSE_hepatic necrosis: 0
[14]
  HepSE_cholecystitis: 0

## C[N+](C)(C)CC(=O)O [BETAINE]
[1]
  HepSE_liver fatty: 0
[2]
  HepSE_cirrhosis: 0
[3]
  HepSE_hepatitis: 0
[4]
  HepSE_hepatic failure: 0
[5]
  HepSE_cholelithiasis: 0
[6]
  HepSE_bilirubinemia: 0
[7]
  HepSE_jaundice: 0
[8]
  HepSE_liver function tests abnormal: 0
[9]
  HepSE_Combined Scores: 0
[10]
  HepSE_hepatomegaly: 0
[11]
  HepSE_elevated liver function tests: 0
[12]
  HepSE_liver disease: 0
[13]
  HepSE_hepatic necrosis: 0
[14]
  HepSE_cholecystitis: 0

## NC(=O)N1c2ccccc2CC(=O)c2ccccc21 [OXCARBAZEPINE]
[1]
  HepSE_liver fatty: 0
[2]
  HepSE_cirrhosis: 0
[3]
  HepSE_hepatitis: 0
[4]
  HepSE_hepatic failure: 0
[5]
  HepSE_cholelithiasis: 1
[6]
  HepSE_bilirubinemia: 0
[7]
  HepSE_jaundice: 0
[8]
  HepSE_liver function tests abnormal: 1
[9]
  HepSE_Combined Scores: 2
[10]
  HepSE_hepatomegaly: 0
[11]
  HepSE_elevated liver function tests: 0
[12]
  HepSE_liver disease: 0
[13]
  HepSE_hepatic necrosis: 0
[14]
  HepSE_cholecystitis: 0

## CC[C@H](C)[C@H](N)C1=N[C@H](C(=O)N[C@@H](CC(C)C)C(=O)N[C@H](CCC(=O)O)C(=O)N[C@H](C(=O)N[C@H]2CCCCNC(=O)[C@H](CC(N)=O)NC(=O)[C@@H](CC(=O)O)NC(=O)[C@H](Cc3cnc[nH]3)NC(=O)[C@@H](Cc3ccccc3)NC(=O)[C@H]([C@@H](C)CC)NC(=O)[C@@H](CCCN)NC2=O)[C@@H](C)CC)CS1 [BACITRACIN] ({Ileψ(thiazoline)Cys}-L[dE]IK[dOrn]I[dF]H[dD]N; lactam 4-C)
[1]
  HepSE_liver fatty: 0
[2]
  HepSE_cirrhosis: 0
[3]
  HepSE_hepatitis: 0
[4]
  HepSE_hepatic failure: 0
[5]
  HepSE_cholelithiasis: 0
[6]
  HepSE_bilirubinemia: 0
[7]
  HepSE_jaundice: 0
[8]
  HepSE_liver function tests abnormal: 0
[9]
  HepSE_Combined Scores: 0
[10]
  HepSE_hepatomegaly: 0
[11]
  HepSE_elevated liver function tests: 0
[12]
  HepSE_liver disease: 0
[13]
  HepSE_hepatic necrosis: 0
[14]
  HepSE_cholecystitis: 0

## CISPLATIN
[1]
  HepSE_liver fatty: 0
[2]
  HepSE_cirrhosis: 0
[3]
  HepSE_hepatitis: 0
[4]
  HepSE_hepatic failure: 0
[5]
  HepSE_cholelithiasis: 0
[6]
  HepSE_bilirubinemia: 0
[7]
  HepSE_jaundice: 0
[8]
  HepSE_liver function tests abnormal: 0
[9]
  HepSE_Combined Scores: 0
[10]
  HepSE_hepatomegaly: 0
[11]
  HepSE_elevated liver function tests: 0
[12]
  HepSE_liver disease: 0
[13]
  HepSE_hepatic necrosis: 0
[14]
  HepSE_cholecystitis: 0

## C=CCC1(C(C)CCC)C(=O)NC(=O)NC1=O (stereo not drawn) [SECOBARBITAL]
[1]
  HepSE_liver fatty: 0
[2]
  HepSE_cirrhosis: 0
[3]
  HepSE_hepatitis: 0
[4]
  HepSE_hepatic failure: 0
[5]
  HepSE_cholelithiasis: 0
[6]
  HepSE_bilirubinemia: 0
[7]
  HepSE_jaundice: 0
[8]
  HepSE_liver function tests abnormal: 0
[9]
  HepSE_Combined Scores: 0
[10]
  HepSE_hepatomegaly: 0
[11]
  HepSE_elevated liver function tests: 0
[12]
  HepSE_liver disease: 0
[13]
  HepSE_hepatic necrosis: 0
[14]
  HepSE_cholecystitis: 0

## CCCCCOc1ccc(-c2ccc(-c3ccc(C(=O)N[C@H]4C[C@@H](O)[C@@H](O)NC(=O)[C@@H]5[C@@H](O)[C@@H](C)CN5C(=O)[C@H]([C@@H](C)O)NC(=O)[C@H]([C@H](O)[C@@H](O)c5ccc(O)cc5)NC(=O)[C@@H]5C[C@@H](O)CN5C(=O)[C@H]([C@@H](C)O)NC4=O)cc3)cc2)cc1 [ANIDULAFUNGIN] ({pTerphenylCO(4''-OnC5H11)}-[Orn(4R-OH,5R-OH)]T[Hyp][hTyr(3S-OH,4S-OH)]T[Pro(3S-OH,4S-Me)]; lactam 1-C)
[1]
  HepSE_liver fatty: 0
[2]
  HepSE_cirrhosis: 0
[3]
  HepSE_hepatitis: 0
[4]
  HepSE_hepatic failure: 0
[5]
  HepSE_cholelithiasis: 0
[6]
  HepSE_bilirubinemia: 0
[7]
  HepSE_jaundice: 0
[8]
  HepSE_liver function tests abnormal: 1
[9]
  HepSE_Combined Scores: 2
[10]
  HepSE_hepatomegaly: 0
[11]
  HepSE_elevated liver function tests: 0
[12]
  HepSE_liver disease: 0
[13]
  HepSE_hepatic necrosis: 1
[14]
  HepSE_cholecystitis: 0
